Test results published in patent publication US20050101595A1, “N-containing cycloalkyl-substituted amino-thiazole derivatives and pharmaceutical compositions for inhibiting cell proliferation and methods for their use” (PFIZER INC., priority 2003, published 2005).

What was measured:
[1] = molecular target: CDK2/Cyclin A (Homo sapiens, UniProt P24941); test: Inhibition of CDK2/Cyclin A Retinoblastoma Kinase Activity; assay type: biochemical; conditions: at 0.03 μM
How it was run: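 Human CDK2, baculovirus/insect-cell expressed, complexed with proteolyzed cyclin A (10 nM or 19 nM CDK2) phosphorylates an Rb fragment with 25 μM [32P/33P]ATP at pH 7.4, 30° C, for 60 or 75 minutes under initial-rate conditions. Filter-captured radioactivity is read by phosphorimager; apparent Ki from competitive-inhibition fits.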

[2] = molecular target: human CDK4 and genetically truncated (1-264) cyclin D3 (Homo sapiens, UniProt P11802); test: Inhibition of CDK4/Cyclin D Retinoblastoma Kinase Activity; assay type: biochemical; conditions: at 0.03 μM
How it was run: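 Read-out: 32P/33P incorporation into Rb fragment (386-928) captured on nitrocellulose, phosphorimager. Enzyme 5 nM CDK4/cyclin D3(1-264) from insect cells; ATP 25 μM, pH 7.4, 30 °C, 20 min (60 min for tight binders). Ki from competitive fits.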

[3] = test system: HCT-116 cell line; test: Inhibition of cell growth, tetrazolium salt (MTT) assay; assay type: cell-based; conditions: HCT-116 cells
How it was run: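 McCoy's 5A cultures; 4 h pre-incubation; compound dilutions in 0.5% v/v DMSO; 3–5 d, 37° C, 5% CO2; MTT 0.2 mg/mL final, 4 h; formazan dissolved in DMSO, A540; vs 0.5% DMSO vehicle.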

Chain of human CDK4 and genetically truncated (1-264) cyclin D3 (P11802 whole entry, the tested form may be a part): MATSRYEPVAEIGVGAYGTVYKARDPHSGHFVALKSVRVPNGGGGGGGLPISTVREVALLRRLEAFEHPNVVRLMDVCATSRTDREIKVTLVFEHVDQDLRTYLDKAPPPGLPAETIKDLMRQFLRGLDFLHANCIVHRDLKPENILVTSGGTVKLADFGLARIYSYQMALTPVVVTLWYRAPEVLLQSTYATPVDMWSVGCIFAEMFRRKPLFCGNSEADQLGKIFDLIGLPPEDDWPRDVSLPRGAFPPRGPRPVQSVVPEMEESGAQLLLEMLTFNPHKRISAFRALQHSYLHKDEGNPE
Chain of human CDK4 and genetically truncated (1-264) cyclin D3 (P30281 1-264 partner): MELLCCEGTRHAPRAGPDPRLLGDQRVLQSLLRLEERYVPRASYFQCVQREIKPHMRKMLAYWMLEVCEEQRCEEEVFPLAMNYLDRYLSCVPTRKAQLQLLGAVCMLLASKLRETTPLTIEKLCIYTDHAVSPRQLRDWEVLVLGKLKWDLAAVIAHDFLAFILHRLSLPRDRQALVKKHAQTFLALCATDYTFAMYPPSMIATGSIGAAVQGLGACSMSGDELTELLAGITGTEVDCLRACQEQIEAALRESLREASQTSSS

Row | CDK2 % Inhibition at 0.03 μM [1] | CDK4 % Inhibition at 0.03 μM [2] | Compound | HCT-116 % Inhibition at 0.1 μM [3] | HCT-116 5 Inhibition at 0.25 μM [3]
1 | 41% | 72% | CC(C)(C)c1cc(C(=O)N2CCC(Nc3nc(N)c(C(=O)c4c(F)cccc4F)s3)CC2)n(Cc2ccccc2)n1 [Example R58] | 5% | 44
2 | 16% | 25% | Cc1cc(C(=O)N2CCC(Nc3nc(N)c(C(=O)c4c(F)cccc4F)s3)CC2)n(C(C)(C)C)n1 [Example R59] | 4% | 47
3 | 45% | 69% | Cn1nc(C(C)(C)C)cc1C(=O)N1CCC(Nc2nc(N)c(C(=O)c3c(F)cccc3F)s2)CC1 [Example R60] | 0% | 29
4 | 63% | 59% | COc1ccc(C=CC(=O)N2CCC(Nc3nc(N)c(C(=O)c4c(F)cccc4F)s3)CC2)c(Cl)c1OC [Example R61] | 0% | 37
5 | 65% | 78% | CC(C)S(=O)(=O)c1csc(C(=O)N2CCC(Nc3nc(N)c(C(=O)c4c(F)cccc4F)s3)CC2)c1Cl [Example R62] | 0% | 38
6 | 11% | 12% | CC(C)S(=O)(=O)c1csc(C(=O)N2CCC(Nc3nc(N)c(C(=O)c4c(F)cccc4F)s3)CC2)c1 [Example R63] | 0% | 38
7 | 9% | 10% | Cc1cc(C(=O)N2CCC(Nc3nc(N)c(C(=O)c4c(F)cccc4F)s3)CC2)no1 [Example R64] | 0% | 42
8 | 9% | 24% | Cc1ccc(S(=O)(=O)CC(=O)N2CCC(Nc3nc(N)c(C(=O)c4c(F)cccc4F)s3)CC2)cc1 [Example R65] | 3% | 31
9 | 16% | 27% | CC(C)(Oc1ccc(Cl)cc1)C(=O)N1CCC(Nc2nc(N)c(C(=O)c3c(F)cccc3F)s2)CC1 [Example R66] | 0.54% | 42
10 | 11% | 22% | CC12CCC(C(=O)N3CCC(Nc4nc(N)c(C(=O)c5c(F)cccc5F)s4)CC3)(OC1=O)C2(C)C (stereo not drawn) [Example R67] | 4% | 40
11 | 22% | 15% | CCn1nc(C)c(Br)c1C(=O)N1CCC(Nc2nc(N)c(C(=O)c3c(F)cccc3F)s2)CC1 [Example R68] | 0% | 33
12 | 29% | 35% | Nc1nc(NC2CCN(C(=O)c3ccc(Oc4cc(Cl)cc(Cl)c4)o3)CC2)sc1C(=O)c1c(F)cccc1F [Example R69] | 0% | 41
13 | 21% | 12% | Cc1nnsc1C(=O)N1CCC(Nc2nc(N)c(C(=O)c3c(F)cccc3F)s2)CC1 [Example R70] | 0% | 44
14 | 33% | 51% | CCCc1c(C(=O)N2CCC(Nc3nc(N)c(C(=O)c4c(F)cccc4F)s3)CC2)cnn1-c1ccccc1 [Example R71] | 0% | 44
15 | 57% | 59% | CS(=O)(=O)c1csc(C(=O)N2CCC(Nc3nc(N)c(C(=O)c4c(F)cccc4F)s3)CC2)c1Cl [Example R72] | 6% | 43
16 | 6% | 19% | Nc1nc(NC2CCN(C(=O)[C@H](Cc3ccccc3)NS(=O)(=O)c3cccc4ccccc34)CC2)sc1C(=O)c1c(F)cccc1F [Example R73] | 4% | 38
17 | 3% | 20% | Nc1nc(NC2CCN(C(=O)[C@H](Cc3ccccc3)NS(=O)(=O)c3ccc([N+](=O)[O-])cc3)CC2)sc1C(=O)c1c(F)cccc1F [Example R74] | 0.12% | 42
18 | 26% | 13% | Cc1ccc(S(=O)(=O)N[C@@H](Cc2ccccc2)C(=O)N2CCC(Nc3nc(N)c(C(=O)c4c(F)cccc4F)s3)CC2)cc1 [Example R75] | 0% | 41
19 | 53% | 64% | COC(=O)CCCCCCCCC(=O)N1CCC(Nc2nc(N)c(C(=O)c3c(F)cccc3F)s2)CC1 [Example R76] | 0% | 38
20 | 19% | 15% | Cc1oc(-c2ccccc2)cc1C(=O)N1CCC(Nc2nc(N)c(C(=O)c3c(F)cccc3F)s2)CC1 [Example R77] | 0% | 44
21 | 20% | 19% | Nc1nc(NC2CCN(C(=O)CC3CCCC3)CC2)sc1C(=O)c1c(F)cccc1F [Example R78] | 0% | 47
22 | 14% | 16% | CN(C)c1ccc(C(=O)N2CCC(Nc3nc(N)c(C(=O)c4c(F)cccc4F)s3)CC2)cc1 [Example R79] | 0% | 47
23 | 7% | 37% | Nc1nc(NC2CCN(C(=O)N3CCOCC3)CC2)sc1C(=O)c1c(F)cccc1F [Example R80] | 0% | 47
24 | −10% | 29% | Nc1nc(NC2CCN(C(=O)N3CCCC3)CC2)sc1C(=O)c1c(F)cccc1F [Example R81] | 13% | 43
25 | −11% | 17% | COCCOC(=O)N1CCC(Nc2nc(N)c(C(=O)c3c(F)cccc3F)s2)CC1 [Example R82] | 0% | 50
26 | 21% | 52% | CCN1CCN(C(=O)N2CCC(Nc3nc(N)c(C(=O)c4c(F)cccc4F)s3)CC2)C(=O)C1=O [Example R83] | 0% | 45
27 | 4% | 21% | CC(C)OC(=O)N1CCC(Nc2nc(N)c(C(=O)c3c(F)cccc3F)s2)CC1 [Example R84] | 0% | 41
